Results: patent US9822125B2, “Benzopyran compounds as melanogenesis modifiers and uses thereof” (NEW YORK UNIVERSITY, priority 2011, dated 2017)

The compounds below were run on melan-a cells (assay: Melanin assay in cultured murine melanocytes (melan-a)). Conditions: 1 μM, 72 hours of incubation.
Type: cell-based
Method: The Spectrum Collection library consisting of 2000 drug compounds or natural products represents a source for the identification of compounds useful in the present invention. The library may be screened to identify novel pigmentation inhibitors in cultured murine melanocytes (melan-a). Compounds are dissolved in dimethylsulfoxide (DMSO) to a final concentration of 10 mM. Screening is performed with cultured melanocytes in 24-well plates followed by melanin assay (see below). A minimum change of 50% in melanin formation is established as significant for a pigmentation inhibitor. DMSO may be used as a negative control and the widely used depigmenting agent, hydroquinone, may be used as a positive control on every plate. Primary screening is performed at a final concentration of 1 μM and potential candidates from the primary screening are reconfirmed in duplicate at final concentrations of 1 and 5 μM.
Melan-a cells are plated at 5×10^4 cells per well in 1 ml of culture media in 24-well plates the day before adding the library compounds. All compounds are added at the indicated final concentrations. Cells are harvested after 72 hours of incubation, and the melanin assay is performed.
For further test and mechanism of action studies, the compounds may be purchased from Sigma, MicroSource or other known suppliers. The compounds are dissolved in dimethylsulfoxide (DMSO) to a final concentration of 10 mM, and are tested for their effect on melanin synthesis at the indicated final concentrations.
For the primary and secondary screening, cells were harvested and dissolved in 200 μl of 2N NaOH in 20% DMSO at 70° C. A 180-μl aliquot of the resulting solution was measured for absorbance at 490 nm.
Cells are harvested in extraction buffer (1% Triton X-100, 50 mM Tris, 2 mM EDTA, 150 mM NaCl, pH 7.5) containing a complete protease inhibitor cocktail (Roche). The lysates were centrifuged at 14,000 rpm for 10 minutes at 4° C. BCA protein assay kit (Pierce) was used to measure the protein concentrations of the supernatants, and bovine serum albumin was used as a standard. The remaining pellets were incubated with 100 μl ethanol-ether (1:1) for 10 minutes at room temperature. After removing the ethanol-ether, the pellets were dissolved in 200 μl of 2N NaOH in 20% DMSO at 70° C. A 180-μl aliquot of the resulting solution was measured for absorbance at 490 nm. The melanin contents were normalized to the total amount of protein.
The compounds, their structures, inhibition data expressed as % of control remaining, are set forth in FIG. 1 and are shown in Table 1, below.

Question: With `CC(C)=CCc1c2c(c(O)c3c(=O)c(-c4ccc(O)cc4)coc13)C=CC(C)(C)O2` [ID 5, Warangalone] as the compound, how does the “% of control melanin remaining after treatment @ 1 μM” value read?
Answer: 100 % of control

Question: With `CC(C)=CCc1c2c(c3occ(-c4ccc(O)cc4)c(=O)c3c1O)C=CC(C)(C)O2` [ID 1, Osajin] as the compound, how does the “% of control melanin remaining after treatment @ 1 μM” value read?
Answer: 99 % of control

Question: `COc1ccc(-c2coc3c4c(c(CC=C(C)C)c(O)c3c2=O)OC(C)(C)C=C4)cc1OC` [ID 4, Pomiferin-3′,4′-dimethyl ether] was tested. Which “% of control melanin remaining after treatment @ 1 μM” value did it give?
Answer: 80 % of control

Question: How did the “% of control melanin remaining after treatment @ 1 μM” value turn out when `CC(C)=CCc1c2c(c3occ(-c4ccc(O)c(O)c4)c(=O)c3c1O)C=CC(C)(C)O2` [ID 3, Pomiferin] was run?
Answer: 53 % of control

Question: `COc1ccc(-c2coc3c4c(c(CC=C(C)C)c(O)c3c2=O)OC(C)(C)C=C4)cc1` [ID 2, Osajin- 4′methyl ester] was tested. Which “% of control melanin remaining after treatment @ 1 μM” value did it give?
Answer: 99 % of control

Same assay, conditions: 5 μM, 72 hours of incubation

Question: With `CC(C)=CCc1c2c(c(O)c3c(=O)c(-c4ccc(O)cc4)coc13)C=CC(C)(C)O2` [ID 5, Warangalone] as the compound, how does the “% of control melanin remaining after treatment @ 5 μM” value read?
Answer: 78 % of control

Question: `CC(C)=CCc1c2c(c3occ(-c4ccc(O)cc4)c(=O)c3c1O)C=CC(C)(C)O2` [ID 1, Osajin] was tested. Which “% of control melanin remaining after treatment @ 5 μM” value did it give?
Answer: 87 % of control

Question: How did the “% of control melanin remaining after treatment @ 5 μM” value turn out when `COc1ccc(-c2coc3c4c(c(CC=C(C)C)c(O)c3c2=O)OC(C)(C)C=C4)cc1OC` [ID 4, Pomiferin-3′,4′-dimethyl ether] was run?
Answer: 50 % of control

Question: For `COc1ccc(-c2coc3c4c(c(CC=C(C)C)c(O)c3c2=O)OC(C)(C)C=C4)cc1` [ID 2, Osajin- 4′methyl ester], which “% of control melanin remaining after treatment @ 5 μM” value is on record?
Answer: 70 % of control
